The values below come from patent publication US20180118721A1, “PYRIMIDINE DERIVATIVES” (Merck Patent GmbH, priority 2015, published 2018).

What is called IC50 is the midpoint of a concentration-inhibition curve. Usually solubility stands for how much of the substance goes into solution per volume. Low values mean little dissolved substance, high ones much dissolved substance. For orientation: residence time means how long the partners stay bound on average. What is called Kd is a measure of binding affinity in units of concentration.

Data set [1] concerns the target T1, purified human recombinant MTH1 (human MTH1, residues 42-197) (Homo sapiens, UniProt P36639).
T1 construct: human MTH1, residues 42-197, Uniprot-ID: P36639, expressed in E. coli; made in house; host or cells: E. coli
Description: MTH1 enzymatic assay (luminescence-based, PPiLight). It is filed as biochemical.

The nature of data set [2]: Microsomal stability (intrinsic clearance), mouse. The data set is classed as in vitro ADME. Particulars: mouse liver microsomes, 0.5 mg/ml protein, Clint. The text has this:
(§1) A microsomal stability assay is used to measure in vitro clearance (Clint). The assay involves measuring the rate of disappearance of a compound due to its intrinsic attitude to be metabolized (“intrinsic” meaning that the disappearance is not affected by other properties like permeability, binding etc. that play a role when quantifying in vivo clearance). The microsomal stability (intrinsic clearance, Clint) and thus metabolic stability is generally given as μl/min/mg protein. It can be visualized as the volume of solution that 1 mg of microsomes is able to clear of the compound in one minute.
(§2) A Tecan Genesis workstation (RSP 150/8) was used for to perform the microsomal incubations. Analysis was carried out using a Waters ACQUITY UPLC system coupled to an ABSciex API3000 mass spectrometer. Data analysis was performed using Assay Explorer (Symyx).
(§3) Column: Acquity UPLC BEH C18, 2.1×50 mm, 1.7 μm (Waters) Mobile phases: A=0.1% formic acid in water; B=acetonitrile
(§4) Flow rate: 0.750 mL/min; Detection: ESI, MRM; Injection: 10 μL; Column temperature: 50° C.
(§5) • Potassium phosphate buffer: 0.05 M potassium phosphate buffer pH 7.4 containing 1 mM MgCl2 • NADPH (nicotinamide adenine dinucleotide phosphate): 22.5 mg NADPH-Na4 in 1.8 ml potassium phosphate buffer • Acetonitrile: 50 Vol % acetonitrile (1 volume acetonitrile, 1 volume water) • DMSO: 20 Vol % DMSO in water • Stock solution of 20 mg/ml human or mouse liver microsomes (protein)/ml in phosphate buffer • Stock solution of 10 mM compound in 100% DMSO
(§6) Dilution of test compounds was done in 2 steps starting from a 10 mM stock solution of the respective compound in 100% DMSO. First 4 μl stock solution was added to 196 μl of 20 Vol % DMSO. In a second step, 10 μl of the first dilution were added to 1590 μl potassium phosphate buffer to achieve a final concentration of 1.25 μM in the final compound dilution. Thus, the amount of organic solvent in the assay was kept to a minimum (<1%).
(§7) The human or mouse liver microsome (protein) solution to be used in the assay was prepared by mixing 750 μl stock solution (20 mg/ml) and 2250 μl potassium phosphate buffer to a final concentration of 5 mg/ml.
(§8) Incubation was carried out on a 96 deep well incubation plate. 160 μl per well of the final compound dilution were transferred onto the incubation plate. Four samples of each compound dilution were assayed. 20 μl/well liver microsome solution was added to each well and the samples were then preincubated for 5 min at 37° C. and 800 rpm agitation. Two reference compounds (verapamil and dextromethorphan) were used in parallel in every experiment and for each species (human or mouse microsomes) to ensure system performance and for comparison.
(§9) On a separate stop plate, 160 μl acetonitrile were added per well.
(§10) After preincubation, i.e. at time t1=0 minutes, 18 μl samples of incubated compound solution and were transferred and added per well (containing acetonitrile) on the stop plate to prevent a reaction (0 minutes control samples, 4 samples per compound). Equally, 18 μl samples of incubated reference compound solution were transferred and added per well (containing acetonitrile) on the stop plate at time t1=0 minutes and again after 30 minutes (t4), solubility and chemical stability of the compound were checked. […]
(In general: Liver microsomes are vesicles of endoplasmic reticulum, rich in cytochrome P450 enzymes.)

Data set [3] is described as follows: Microsomal stability (intrinsic clearance), human. It is filed as in vitro ADME. The note with it: human liver microsomes, 0.5 mg/ml protein, Clint.
Source text: as §1, §2, §3, §4, §5, §6, §7, §8, §9, §10

Data set [4] in a line: Shake flask solubility measurement. It is filed as physicochemical. The note with it: aqueous buffer, thermodynamic from solid, phosphate buffer pH 7.4, 37° C. The protocol:
Compound solubility in aqueous solution is determined by a standard method in the art, the shake flask method. Solubility measurement is performed under equilibrium conditions at pH 7.4. Samples are prepared by dissolving an excess of the test compound in a phosphate buffer (made up of 3,954 g sodium hydrogenphosphate-monohydrate, 6,024 g sodium chloride, 950 ml ultrapure water and adjusted to pH 7.4 with 0.1 M NaOH or 0.1 M HCl). These samples are shaken at 37° C. with 450 rpm (shaker: TiMix control Bühler) for 24 h in total until equilibrium is reached. After 7 hours shaking, the pH value of the sample is controlled and adjusted, if necessary. It is also checked that the sample (test compound) is available in excess. Shortly before the end of 24 h, samples are checked again for pH and precipitate. At the end of 24 h and after separation of the solid by filtration, the concentration of the compound in the filtrate is determined by liquid chromatography using […] (LC-UV).
Sample preparation: Incubation hood: TH 15 Bühler; pH device 766 Calimatic Knick; pH electrode InLab 423 Mettler
Chromatography Conditions:
Column: Chromolith RP18e 100×3 mm
Wavelength range: 190-400 nm • select a suitable evaluation wavelength
Injection volume: Probe 5 μl and 15 μl; Standard 5 μl
Column stove temperature: 37° C.
Eluent A: water/formic acid (999:1; v/v)
Eluent B: acetonitrile/formic acid (999:1; v/v)

For data set [5], the target named is T2, humanMTH1 (aminoacids 42 to 197) (Homo sapiens, UniProt P36639).
T2 construct: humanMTH1 (aminoacids 42 to 197); His tag at the N-terminus; purchased Abnova ab99390; host or cells: E. coli
Description: Binding affinities and kinetics on MTH1 surfaces by surface plasmon resonance (SPR). Particulars: for residence time: on MTH1, calculated on the basis of the KD values; for Kd: SPR, Biacore4000, 25° C., Table 1, grouped, read-out: KD IC50. The protocol: The SPR experiments were performed using a Biacore4000 instrument. […] HumanMTH1 was immobilized on Biacore CM5 chips at 25° C. and a flow rate of 10 μL/min using amine coupling at pH 5.5 and in presence of 1 μM MSC2567771B-1 according to Biacore's standard protocol. MTH1 was applied at a concentration of 10 μg/mL and depending on the duration of the injection time immobilization levels between 500 and 2,000 RU were obtained. Sample compounds were applied in form of titration series with a doubling of concentration at each subsequent injection. In general, 10 concentrations were injected covering a dilution range of 500 fold. Before and after each of these titration series the binding capability of the surface was controlled by the injection of the positive control S-Crizotinib at a fixed concentration of 2 μM. Kinetic titration experiments were performed at 25° C. with a flow rate of 30 μL/min, a sample contact time of 90 sec and a dissociation time of 420 sec in running buffer (20 mM Tris-HCl (Tris(hydroxymethyl)-aminomethane HCl) pH 7.40, 150 mM NaCl, 5 mM MgCl2, 1 mM DTT (dithiothreitol), 0.1 mM EGTA (ethylene glycol tetraacetic acid), 0.05% Tween 20) containing 2% DMSO (dimethyl sulfoxide). Buffer injections identical to the sample injections were executed at the beginning of the successive series for the purpose of double referencing. Solvent correction cycles (eight correction points, 1.4%-2.8% DMSO) were run at the same intervals. For surface conditioning ten start-up cycles (buffer injections) were run. Data points were collected at a sample rate of 10 Hz.
Data sets were processed and analyzed using the software Biacore4000 Evaluation, version 1.0. Solvent corrected and double-referenced association and dissociation phase data were fitted to a simple 1:1 interaction model with mass transport limitations.
Measured values are indicated as KD IC50 in the Table below.

The mark [6] stands for this setting: 6 μM 8-oxo-dGTP, Table 1, grouped.

SMILES strings stand for the structures. Like-named read-outs stand apart in the source and are kept apart here.

For `CNc1cc(N2CCC(F)(F)C2)nc(N)n1` [Example 3, 6-(3,3-difluoro-pyrrolidin-1-yl)-N^4-methyl-pyrimidine-2,4-diamine], the 50% inhibitory concentration (IC50) in data set [1] (setting [6]) and in data set [1] (Table 2) was less than 1 nM throughout. Also, the Microsomal stability mouse in data set [2] was determined as 43 μl/min/mg prot. The Microsomal stability human in data set [3] is on record as less than 10 μl/min/mg prot. The compound also showed a solubility at 24 h in data set [4] greater than 1000 µg/mL.
`NC(=O)C1CCN(c2cc(NC3CC3)nc(N)n2)C1` (centres unmarked) [Example 5, 1-(2-amino-6-cyclopropylamino-pyrimidin-4-yl)-pyrrolidine-3-carboxylic acid amide-formate]: the IC50 in data set [1] (setting [6]) is 1 to 100 nM; in data set [1] (Table 2) it was 7 nM. The Microsomal stability mouse in data set [2] came to 13 μl/min/mg prot. For the same compound, the Microsomal stability human in data set [3] is less than 10 μl/min/mg prot. In addition, the solubility at 24 h in data set [4] is greater than 1000 µg/mL.
For the compound `CNc1cc(N2CCC(O)C2)nc(N)n1` (centres unmarked) [Example 7, 1-(2-amino-6-methylamino-pyrimidin-4-yl)-pyrrolidin-3-ol-formate], the half-maximal inhibitory concentration (IC50) in data set [1] (setting [6]) is 1 to 100 nM; in data set [1] (Table 2), 1.3 nM. The Microsomal stability mouse in data set [2] was less than 10 μl/min/mg prot. Also, the Microsomal stability human in data set [3] is recorded as less than 10 μl/min/mg prot. Also, in data set [4], the solubility at 24 h is greater than 1000 µg/mL.
As to `CNc1cc(N2CCC[C@@H]2CO)nc(N)n1` [Example 8, [(R)-1-(2-amino-6-methylamino-pyrimidin-4-yl)-pyrrolidin-2-yl]-methanol-formate], the IC50 is 1 to 100 nM in data set [1] (setting [6]) and 2 nM in data set [1] (Table 2). Moreover, the Microsomal stability mouse in data set [2] was less than 10 μl/min/mg prot. Besides, the Microsomal stability human in data set [3] is less than 10 μl/min/mg prot. In data set [4], this compound came in with a solubility at 24 h greater than 1000 µg/mL.
As to `CNc1cc(N2CC(C(=O)NCCc3ccc(S(=O)(=O)F)cc3)C2)nc(N)n1` [Example 108, 4-(2-{[1-(2-Amino-6-methylamino-pyrimidin-4-yl)-azetidine-3-carbonyl]-amino}-ethyl)-benzenesulfonyl fluoride], the IC50 in data set [1] (setting [6]) was less than 1 nM. The residence time in data set [5] is no less than 10 min.
For the compound `CNc1cc(N2CCCC2Cc2cccc(C)c2)nc(N)n1` (centres unmarked) [Example 112, N4-Methyl-6-[2-(3-methyl-benzyl)-pyrrolidin-1-yl]-pyrimidine-2,4-diamine], the half-maximal inhibitory concentration (IC50) in data set [1] (setting [6]) is less than 1 nM. For the same compound, the dissociation constant Kd in data set [5] was 1 to 100 nM.
As for `C=CC(=O)Nc1ccc(CCNC(=O)C2CCN(c3cc(NC)nc(N)n3)CC2)cc1` [Example 113, 1-(2-Amino-6-methylamino-pyrimidin-4-yl)-piperidine-4-carboxylic acid [2-(4-acryloylamino-phenyl)-ethyl]-amide], the IC50 in data set [1] (setting [6]) is 1 to 100 nM. Also, the dissociation constant Kd in data set [5] fell in the range of 1 to 100 nM.
For the compound `CNc1cc(N2C(=O)CCC2Cc2ccccc2)nc(N)n1` (centres unmarked) [Example 114, 1-(2-Amino-6-methylamino-pyrimidin-4-yl)-5-benzyl-pyrrolidin-2-one], the IC50 in data set [1] (setting [6]) is 1 to 100 nM. Further, the Kd in data set [5] lay within 1 to 100 nM.
As for `CNc1cc(N2CC(Cc3ccccc3)CC2=O)nc(N)n1` (centres unmarked) [Example 115, 1-(2-Amino-6-methylamino-pyrimidin-4-yl)-4-benzyl-pyrrolidin-2-one], in data set [1] (setting [6]), the half-inhibitory concentration (IC50) is 1 to 100 nM. Also, the Kd in data set [5] lay within 1 to 100 nM.
For the compound `CNc1cc(N2CCCC[C@@H]2Cc2ccc(OC)cc2)nc(N)n1` [Example 116, 6-[(R)-2-(4-Methoxy-benzyl)-piperidin-1-yl]-N4-methyl-pyrimidine-2,4-diamine], the concentration for half-maximal inhibition (IC50) in data set [1] (setting [6]) was less than 1 nM. In addition, in data set [5] (read-out: Residence time), the residence time was no less than 10 min.
`CNc1cc(N2CCCC[C@H]2Cc2ccc(OC)cc2)nc(N)n1` [Example 117, 6-[(S)-2-(4-Methoxy-benzyl)-piperidin-1-yl]-N4-methyl-pyrimidine-2,4-diamine]: the concentration for half-maximal inhibition (IC50) in data set [1] (setting [6]) is less than 1 nM. In addition, the Kd in data set [5] was less than 1 nM.
In the case of `C=CC(=O)Nc1ccc(CCNC(=O)C2CN(c3cc(NC)nc(N)n3)C2)cc1` [Example 118, 1-(2-Amino-6-methylamino-pyrimidin-4-yl)-azetidine-3-carboxylic acid [2-(4-acryloylamino-phenyl)-ethyl]-amide], the half-inhibitory concentration (IC50) in data set [1] (setting [6]) was 1 to 100 nM. Also, the dissociation constant (Kd) in data set [5] fell in the range of 1 to 100 nM.
As to `CNc1cc(N2CCC(C(=O)NCCc3ccc(S(=O)(=O)F)cc3)CC2)nc(N)n1` [Example 120, 4-(2-{[1-(2-Amino-6-methylamino-pyrimidin-4-yl)-piperidine-4-carbonyl]-amino}-ethyl)-benzenesulfonyl fluoride], the IC50 in data set [1] (setting [6]) was less than 1 nM. The residence time in data set [5] is no less than 10 min.
